Earlier results, collected in US11866789B2, “Targeted therapies for cancer” (THE TRANSLATIONAL GENOMICS RESEARCH INSTITUTE, priority 2015, dated 2024).

Assays:
[1] = tested on: advanced biliary tract cancer or hepatobiliary cancer; settings: 17 patients evaluated
[2] = tested on: Cell line models expressing NRG1 fusions; settings: See Reference 29

## CS(=O)(=O)CCNCc1ccc(-c2ccc3ncnc(Nc4ccc(OCc5cccc(F)c5)c(Cl)c4)c3c2)o1 [Lapatinib]
[1]
  objective response: no objective response
[2]
  sensitivity of NRG1 fusion cell line models: increased sensitivity
